The record followed here is patent US20230339882A1, “SHP2 INHIBITOR AND COMPOSITION AND APPLICATION THEREOF” (Betta Pharmaceuticals Co., Ltd., priority 2020, published 2023).

One assay deals with SHP2 (Homo sapiens (Human), UniProt Q06124). Briefly: SHP2 allosteric inhibitory enzyme activity assay (DiFMUP fluorescence). Format: biochemical. The conditions noted are these: read-out: SHP2 enzymatic activity IC50. An excerpt:
Example A: SHP2 Allosteric Inhibitory Enzyme Activity Assay
SHP2 is allosterically activated by binding of a bis-tyrosyl-phosphorylated peptide to its Src homology 2 (SH2) domain. This later activation step results in the release of the autoinhibitory interface of SHP2, which in turn activates the SHP2 protein tyrosine phosphatase (PTP) and is available for substrate recognition and reaction catalysis. The catalytic activity of SHP2 was monitored using the surrogate DiFMUP in a rapid fluorescence assay format.
experiment procedure: • (1) Compound preparation: • The compounds of the present invention (10 mM stock solution) were diluted to appropriate times with 100% DMSO, and the final test concentrations of the compounds of the present invention were 10 µM, 3.3333 µM, 1.1111 µM, 0.3704 µM, 0.1235 µM, 0.0412 µM, 0.0137 µM, 0.0046 µM, 0.0015 µM, 0.00 µM; • (2) Prepare the enzyme reaction working solution: • Perform SHP2 enzymatic assays in 96-well black polystyrene plates (flat bottom, low flange, non-binding surface) (Perki Elmer, Cat#6005270) at room temperature using a final reaction volume of 50 µL and the following assay buffer conditions: 60 mM HEPES, 75 mM NaCl, 75 mM KCl, 0.05% BRIJ-35, 1 mM EDTA, 5 mM DTT. • (3) Enzyme-catalyzed reaction and data monitoring: • Add the compound of the present invention to the corresponding 96-well plate, and set the blank test well without compound and enzyme only with buffer. Thaw SHP2 Activating Peptide (IRS1_pY1172(dPEG8)pY1222) on ice, add 25 µM to each well, then add 0.2 ng of SHP2 protein sample to the corresponding well plate and incubate at room temperature for 1 hour. The surrogate substrate DiFMUP (Invitrogen, Cat #D6567) was added to the reaction and allowed to react for 1 hour at room temperature. Fluorescence signals were monitored using a microplate reader (Envision, Perki Elmer) using excitation and emission wavelengths of 340 nm and […], respectively. • (4) Data analysis: • Calculation Formula: • [formula]
Among them: Conversion_sample is the conversion rate reading of the sample; Conversion_min is the average value of blank control wells, representing the conversion rate readings of wells without enzymatic activity; Conversion_max is the mean ratio of positive control wells, representing the conversion rate readings of wells without compound inhibition. The log(inhibitor) vs. response-Variable slope of the analysis software GraphPad Prism was used to fit the dose-response curve, and the IC50 value of the compound for the enzymatic activity was calculated.

A further assay deals with leukemia cells MV-4-11. In words: Cell proliferation assay, CELL TITER-GLO (CTG) luminescence, MV-4-11. Format: cell-based. How it is done: (§1) Example B: Cell Proliferation Assay
(§2) The effects of the compounds of the invention on the proliferation of leukemia cells MV-4-11 and lung cancer cells NCI-H358 were evaluated using in vitro cell assays. The detection method used in the experiment is the CELL TITER-GLO (CTG) luminescence method, which can detect the number of viable cells by quantifying ATP. Because ATP participates in a variety of enzymatic reactions in vivo, it is an indicator of the metabolism of living cells, and its content directly reflects the number and state of cells. During the experiment, CellTiter-Glo™ reagent was added to the cell culture medium to measure the luminescence value. The value is proportional to the amount of ATP, and ATP is positively related to the number of living cells, so the cell viability can be examined by detecting the ATP content.
(§3) experiment procedure: • (1) Cell plating: • Take a bottle of MV-4-11 cells in logarithmic growth phase, resuspend the cells by centrifugation and count them. After adjusting the cell density, they were seeded into a 96-well plate (Corning #3917). After culturing in a 5% CO2 incubator for 24 hrs, the compound of the present invention was added for treatment; • Take a bottle of NCI-H358 cells in logarithmic growth phase, digest and resuspend the cells, count them, adjust the cell density, and inoculate them into a 96-well transparent ultra-low adsorption cell culture plate (Corning #3474), inoculate 2000 cells per well. The plate was placed in an incubator at 37° C. and 5% CO2 for 24 hrs, and then the compound of the present invention was added for treatment; • (2) Cell compound treatment: • An appropriate amount of the compound of the present invention was prepared for cell treatment. The final concentration of the compound from high to low was 1000 nM, 333.3 nM, 111.1 nM, 37.04 nM, 12.35 nM, 4.115 nM, 1.372 nM, 0.4572 nM, 0.1524 nM, and 0 nM. The plate was placed in a 37° C., 5% CO2 incubator for 120 hrs. Only adding medium without cell wells was set as the blank group; the group with compound concentration of 0 nM was the zero-adjusting group. • (3) CTG detection: • After NCI-H358 cells were cultured for 96 hrs, 50 µL of CellTiter-Glo® Luminescent Cell Viability Assay solution was added to each well, shaken gently for 2 mins, and incubated at room temperature for 10 mins. The cell reaction system was transferred to a white-bottomed 96-well plate. Read the detection value of each well on a multi-function microplate reader. • After MV-4-11 cells were cultured for 120 hrs, 50 µL of CellTiter-Glo® Luminescent Cell Viability Assay solution was added to each well, gently shaken for 2 mins, and incubated at room temperature for 10 mins. Check the value. • (4) Data analysis: • Calculate the inhibition rate from the luminescence value readings, • [formula]
(§4) The log(inhibitor) vs. response-Variable slope of GraphPad Prism was fitted to dose-response curves and IC50s of compounds that inhibited cell proliferation were calculated.
In general terms: Cellular ATP, detected with luciferase, serves as a proxy for viable cell number.

The test system of assay [1] is lung cancer cells NCI-H358. Briefly: Cell proliferation assay, CELL TITER-GLO (CTG) luminescence, NCI-H358. Type of assay: cell-based. The note with it: cultured for 96 hrs. The protocol:
as §1, §2, §3, §4

The mark [2] stands for this setting: Homo sapiens, MV4-11, cultured for 120 hrs.
The mark [3] stands for this setting: Homo sapiens, NCI-H358, ultra-low adsorption plate.

As to `COc1cc(OCC#Cc2cnc(N3CCC4(CC3)Cc3ccccc3[C@H]4N)c(CO)n2)ccn1` [Compound A49, (S)-(3-(1-amino-1,3-dihydrospiro[indene-2,4′-piperidin]-1′-yl)-6-(3-((2-methoxypyridine-4-yl)oxy)prop-1-yn-1-yl)pyrazin-2-yl)methanol], the IC50 worked out at 1.4 nM on SHP2, 6.7 nM with leukemia cells MV-4-11 (setting [2]) and 8.5 nM in assay [1] (setting [3]).
For `CNc1ncc(OCC#Cc2cnc(N3CCC4(CC3)Cc3ccccc3[C@H]4N)c(CO)n2)cn1` [Compound A68, (S)-(3-(1-amino-1,3-dihydrospiro[indene-2,4′-piperidin]-1′-yl)-6-(3-( (2-(methylAmino)pyrimidin-5-yl)oxy)prop-1-yn-1-yl)pyrazin-2-yl) methanol], the results for the IC50 (on SHP2; in the assay with leukemia cells MV-4-11 (setting [2]); in assay [1] (setting [3])) were 2.1 nM, 8.6 nM and 26 nM, respectively.
The matching figures for `COc1ccc(OCC#Cc2cnc(N3CCC4(CC3)Cc3ccccc3[C@H]4N)c(CO)n2)cc1` [Compound A09, (S)-(3-(1-amino-1,3-dihydrospiro [indene-2,4′-piperidine]-1′-yl)-6-(3-(4-methoxyphenoxy)prop-1-yn-1-yl)pyrazin-2-yl) methanol]: 0.9 nM, 2.6 nM and 4.9 nM.
`N[C@@H]1c2ccccc2CC12CCN(c1ncc(C#CCOc3ccccc3)nc1CO)CC2` [Compound A01, (S)-(3-(1-amino-1,3-dihydrospiro [indene-2,4′-piperidine]-1′-yl)-6-(3-phenoxyprop-1-yn-1-yl)pyrazin-2-yl)methanol]: the IC50 at SHP2 amounted to 1.2 nM; in the assay with leukemia cells MV-4-11 (setting [2]) it was 2.6 nM; in assay [1] (setting [3]) it was 7.3 nM.
On to `Cc1cc(OCC#Cc2cnc(N3CCC4(CC3)Cc3ccccc3[C@H]4N)c(CO)n2)ccc1C(N)=O` [Compound A74, (S)-4-((3-(5-(1-amino-1,3-dihydrospiro[indene-2,4′-piperidin]-1′-yl)-6-(hydroxymethyl)pyrazin-2-yl)prop-2-yn-1-yl)oxy)-2-methylbenzamide], for which the values for the IC50 (at SHP2; in the assay on leukemia cells MV-4-11 (setting [2]); in assay [1] (setting [3])) were 1.1 nM, 1.7 nM and 6.4 nM, respectively.
With `N[C@@H]1c2ccccc2CC12CCN(c1ncc(C#CCOc3ccc(O)cn3)nc1CO)CC2` [Compound A75, (S)-6-((3-(5-(1-amino-1,3-dihydrospiro[indene-2,4′-piperidin]-1′-yl)-6-(hydroxymethyl)pyrazin-2-yl)prop-2-yn-1-yl)oxy)pyridin-3-ol], the figures for the half-inhibitory concentration (IC50) (on SHP2; with leukemia cells MV-4-11 (setting [2]); in assay [1] (setting [3])) were 7.8 nM, 7.3 nM and 78 nM, respectively.
With `Cn1nccc1Nc1ccc(OCC#Cc2cnc(N3CCC4(CC3)Cc3ccccc3[C@H]4N)c(CO)n2)cc1` [Compound A77], the figures for the IC50 (on SHP2; in the assay with leukemia cells MV-4-11 (cultured for 120 hrs); in assay [1] (ultra-low adsorption plate)) were 5.9 nM, 11 nM and 36 nM, respectively.
In the case of `N[C@@H]1c2ccccc2CC12CCN(c1ncc(C#CCOc3ccc4c(c3)CCNC4=O)nc1CO)CC2` [Compound A52, (S)-6-((3-(5-(1-amino-1,3-dihydrospiro[indene-2,4′-piperidin]-1′-yl)-6-(hydroxymethyl)pyrazin-2-yl)prop-2-yn-1-yl)oxy)-3,4-dihydroisoquinolin-1(2H)-one], the results for the IC50 (at SHP2; in the assay on leukemia cells MV-4-11 (setting [2]); in assay [1] (setting [3])) were 1.6 nM, 1.5 nM and 4.6 nM, respectively.
Regarding `COc1cccc(OCC#Cc2cnc(N3CCC4(CC3)Cc3ccccc3[C@H]4N)c(CO)n2)c1` [Compound A02, (S)-(3-(1-amino-1,3-dihydrospiro [indene-2,4′-piperidine]-1′-yl)-6-(3-(3-methoxyphenoxy)prop-1-yn-1-yl)pyrazin-2-yl) methanol], the half-maximal inhibitory concentration (IC50) at SHP2 was determined as 0.7 nM; with leukemia cells MV-4-11 (setting [2]) it was 5 nM; in assay [1] (setting [3]) it was 7.8 nM.
Consider `N[C@@H]1c2ccccc2CC12CCN(c1ncc(C#CCNc3ccc(C(F)(F)F)nc3)nc1CO)CC2` [Compound A63, (S)-(3-(1-amino-1,3-dihydrospiro[indene-2,4′-piperidin]-1′-yl)-6-(3-( (6-(trifluoromethyl)pyridin-3-yl)amino)prop-1-yn-1-yl)pyrazin-2-yl)methanol], for which the IC50 at SHP2 was 5 nM; with leukemia cells MV-4-11 (setting [2]), 11 nM; in assay [1] (setting [3]) it was 36 nM.
The matching figures for `CC(=O)Nc1cccc(OCC#Cc2cnc(N3CCC4(CC3)Cc3ccccc3[C@H]4N)c(CO)n2)c1` [Compound A04, (S)-N-(3-((3-(5-(1-amino-1,3-dihydrospiro[indene-2,4′-piperidin]-1′-yl)-6-(hydroxymethyl)pyrazin-2-yl)prop-2-yn-1-yl)oxy)phenyl)acetamide]: 2.9 nM, 3.6 nM and 4 nM.
In the case of `N#Cc1cccc(OCC#Cc2cnc(N3CCC4(CC3)Cc3ccccc3[C@H]4N)c(CO)n2)c1` [Compound A53, (S)-3-((3-(5-(1-amino-1,3-dihydrospiro[indene-2,4′-piperidin]-1′-yl)-6-(hydroxymethyl)pyrazin-2-yl)prop-2-yn-1-yl)oxy)benzonitrile], the IC50 on SHP2 was 3.3 nM; with leukemia cells MV-4-11 (setting [2]), 8.1 nM; in assay [1] (setting [3]), 27 nM.
Regarding `CC(=O)N1CCN(c2ccc(OCC#Cc3cnc(N4CCC5(CC4)Cc4ccccc4[C@H]5N)c(CO)n3)cc2)CC1` [Compound A21, (S)-1-(4-(4-(3-(5-(1-amino-1,3-dihydrospiro [indene-2,4 ‘-piperidine]-1′-yl) -6-(hydroxymethyl)pyrazin-2-yl)prop-2-yn-1-yl)oxy)piperazin-1-yl)ethane-1-one], the IC50 at SHP2 came to 2.1 nM; with leukemia cells MV-4-11 (cultured for 120 hrs) it was 11 nM; in assay [1] (ultra-low adsorption plate), 12 nM.
On to “(S)-(3-(1-amino-1,3-dihydrospiro[ indene-2,4′-piperidin]-1′-yl)-6-(3-( 4-morpholinoloxy)prop-1-yn-1-yl )pyrazin-2-yl)methanol [Compound A20]”, for which the figures for the half-inhibitory concentration (IC50) (on SHP2; in the assay with leukemia cells MV-4-11 (cultured for 120 hrs); in assay [1] (ultra-low adsorption plate)) were 3.8 nM, 12 nM and 14 nM, respectively.
Consider “(S)-(3-(1-amino-1,3-dihydrospiro[ indene-2,4′-piperidin]-1′-yl)-6-(3-( benzo[d][1,3]dioxyol-5-oxy)prop-1-yn-1-yl)pyrazin-2-yl)methanol [Compound A28]”, for which the results for the IC50 (at SHP2; in the assay with leukemia cells MV-4-11 (cultured for 120 hrs); in assay [1] (ultra-low adsorption plate)) were 1.5 nM, 6.1 nM and 7 nM, respectively.

As a reminder, the IC50 is the concentration that inhibits the measured activity by half.
